Results as given in patent US20200297746A1, “COMPOSITION FOR REDUCING WEIGHT AND LOWERING LIPID, PREPARATION METHOD THEREFOR AND USE THEREOF” (CATCH BIO-SCIENCE & TECHNOLOGY CO., LTD., priority 2017, published 2020).

Legend:
[1] = tested on: obesity model rats fed with the high-fat feed; test: Weight reducing effect in rats fed high-fat feed, 7 weeks of administration via lavage; assay type: in vivo, male Spague-Dawlay (SD) Rats; conditions: high-fat feed SD rats, 80 mg/kg via lavage once daily for 7 weeks, x ± s, n = 10
Source text: The feed is commercially available. The high-fat feed comprises 75% base feed, 2% cholesterol, 0.5% sodium cholate, 15% lard, and 7.5% egg yolk. 150 male Spague-Dawlay (SD) Rats of clean grade, each aged 4 weeks and weighed 150-180 g, are provided by Shanghai Lingchang Biotechnology Co., Ltd. The rats are fed in separate plastic cages, given free access to water and feed for 7 days to adapt to the environment, and then quarantined. 140 rats of similar weight are selected from the 150 rats, randomly divided into 14 groups, with 10 rats in each group, including experimental groups 1-8, comparative experiment groups 1-4, a model control group and a blank control group. Rats in the blank control group are fed with the base feed, and rats in other groups are fed with the high-fat feed. Rats in the experimental groups 1-8 are respectively administered via lavage with 80 mg/kg of the pharmaceutical compositions prepared in Examples 1-8; rats in the comparative experiment groups 1-4 are respectively administered via lavage with 80 mg/kg of phloridzin, 80 mg/kg of the extract from Curcuma longa L., 80 mg/kg of epigallocatechin gallate and 80 mg/kg of the extract from […] folium; and rats in the model control group and the blank control group are administered via lavage with equivalent amounts of saline. Rats in each group receive administration once daily for 7 continuous weeks. (1) After 7 weeks of administration, the weight and weight gain of rats in each group are observed and recorded; (2) Rats are anesthetized with ether, and fat pads surrounding the genitalia and kidney and the fat of the omentum are separated and weighed. A fat-to-weight ratio is calculated according to the following equation: fat-to-weight ratio (%)=(weight of fat surrounding the genitalia+weight of fat surrounding kidney+weight of fat of the omentum)/body weight×100%; Data processing is performed using SPSS 20.0 software. Differences between the groups are analyzed using a single-factor variance analysis.

[2] = tested on: hyperlipemia model rats fed with the high-fat feed; test: Blood lipid lowering effect in rats fed high-fat feed, serum biochemical parameters by enzymatic method; assay type: in vivo, male Spague-Dawlay (SD) Rats; conditions: high-fat feed SD rats, 80 mg/kg via lavage once daily for 7 weeks, x ± s, n = 10
Source text: The feed is commercially available. The high-fat feed comprises 75% base feed, 2% cholesterol, 0.5% sodium cholate, 15% lard, and 7.5% egg yolk. 150 male Spague-Dawlay (SD) Rats of clean grade, each aged 4 weeks and weighed 150-180 g, are provided by Shanghai Lingchang Biotechnology Co., Ltd. The rats are fed in separate plastic cages, given free access to water and feed for 7 days to adapt to the environment, and then quarantined.
140 rats of similar weight are selected from the 150 rats, randomly divided into 14 groups, with 10 rats in each group, including experimental groups 1-8, comparative experiment groups 1-4, a model control group and a blank control group. Rats in the blank control group are fed with the base feed, and rats in other groups are fed with the high-fat feed.
Rats in the experimental groups 1-8 are respectively administered via lavage with 80 mg/kg of the pharmaceutical compositions prepared in Examples 1-8; rats in the comparative experiment groups 1-4 are respectively administered via lavage with 80 mg/kg of phloridzin, 80 mg/kg of the extract from Curcuma longa L., 80 mg/kg of epigallocatechin gallate and 80 mg/kg of the extract from sennae folium; and rats in the model control group and the blank control group are administered via lavage with equivalent amounts of saline.
Rats in each group receive administration once daily for 7 continuous weeks.
(3) After 7 weeks of administration, blood are collected from orbital posterior venous plexus of the rats and analyzed with an enzymatic method on a full-automatic biochemical analyzer to quantitatively determine levels of triglycerides (TG), total cholesterol (TC), high density lipoprotein cholesterol (HDL-C), and low density lipoprotein cholesterol (LDL-C) in serum.
Data processing is performed using SPSS 20.0 software. Differences between the groups are analyzed using a single-factor variance analysis.

Structure (SMILES) | Body weight gain [1] | Fat-to-weight ratio [1] | HDL-C [2] | LDL-C [2] | TC [2] | TG [2]
O=C(O[C@@H]1Cc2c(O)cc(O)cc2O[C@@H]1c1cc(O)c(O)c(O)c1)c1cc(O)c(O)c(O)c1 [Comparative experiment Group 3, epigallocatechin gallate] | 189.76 ± 22.25 g | 7.48 ± 0.53% | 0.59 ± 0.12 mmol/L | 0.55 ± 0.12 mmol/L | 2.55 ± 0.43 mmol/L | 1.77 ± 0.41 mmol/L
O=C(CCc1ccc(O)cc1)c1c(O)cc(O)cc1O[C@@H]1O[C@H](CO)[C@@H](O)[C@H](O)[C@H]1O [Comparative experiment Group 1, phloridzin] | 161.35 ± 20.01 g | 5.87 ± 0.72 % | 0.72 ± 0.10 mmol/L | 0.49 ± 0.10 mmol/L | 2.21 ± 0.51 mmol/L | 1.56 ± 0.39 mmol/L
